# Data: PMC7994582 (Communications Biology, 2021)
# Where a SMILES comes first, the peptide text is derived from it. [ ]: non-standard residue; d: D form. pS = N[C@@H](COP(=O)(O)O)C(=O)O
# Tests used:
# Ess1 [1] = target: T1, Ess1 (Saccharomyces cerevisiae, UniProt P22696, R8S); experiment: Competition fluorescence anisotropy (unlabeled CTD peptides vs. FITC-1R-CTD for Ess1 binding); conditions: for Normalized Anisotropy: competition vs FITC-1R-CTD, mean
# T1 construct: Full-length Ess1 or Ess1 C120S plasmid was used to transform E. coli cells; 6xHis (cleaved yes); made in house; host or cells: E. coli Rosetta II (DE3) pLysS, isotope-labeled M9 minimal media
# T1 sequence (P22696 whole entry R8S): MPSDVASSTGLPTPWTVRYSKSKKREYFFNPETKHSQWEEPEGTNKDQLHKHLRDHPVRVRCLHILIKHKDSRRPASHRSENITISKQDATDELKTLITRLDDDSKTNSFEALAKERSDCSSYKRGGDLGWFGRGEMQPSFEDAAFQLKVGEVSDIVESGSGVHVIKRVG
# Procedure: A 1 repeat CTD peptide labeled with FITC at its N-terminus was used as a probe (FITC-1R, Table 2). […] Each point represents an average (±SD) of n = 2 or 3 from independent experiments.
# Fluorescence anisotropy measurements were performed in a Hidex Sense microplate reader using an excitation wavelength of 485 nm and an emission wavelength of 535 nm. Measurements were performed in 20 mM Tris pH 8.0, 3 mM TCEP buffer. […] Competition data was used to calculate IC50 values to compare the affinity differences between all five substrates (Eq. (1)).1 Competitionmodel:f1=min+max−min/1+x/IC50∧−Hillslope
# Ess1 [2] = target: T1, Ess1; experiment: NMR 1H-15N HSQC titration, Kd determination (single-site model); assay type: binding
# Procedure: Binding was monitored by recording ^1H–^15N HSQC spectra at different peptide to protein ratios. For each backbone amide, we assumed that the CSP was a weighted average between the free (Δδ = 0) and ligand-bound (Δδ = Δδbound) states, such that Δδ = Δδbound * [PL]/[Ptotal]. Here, [PL] and [Ptotal] represent the ligand-bound protein concentration, and Ptotal is the total protein concentration of Ess1. The CSP for each amide was calculated using the equation CSP=ΔδH^2+ΔδN/5^2 where ΔδH and ΔδN represent the change in chemical shift in the ^1H and ^15N dimensions, such that Δδ = 0 when calculating the CSP for the reference spectrum (in the absence of ligand). To obtain the dissociation binding constant, Kd, we used the single-site binding equation, PL=(([Ptotal]+[Ltotal]+Kd)−([Ptotal]+[Ltotal]+Kd)^2−4*[Ptotal]*[Ltotal])/2 , where [Ptotal] and [Ltotal] are total protein (Ess1) and ligand (CTD peptide) concentrations, respectively. Fitting was performed using an in-house Matlab script. […] Errors represent standard deviation of residue-specific Kd values.
# [3] = target: 1R CTD peptide CTD 1 repeat (Saccharomyces cerevisiae) (UniProt P04050); conditions: cited from earlier work
# Sequence of 1R CTD peptide CTD 1 repeat (Saccharomyces cerevisiae) (P04050 whole entry, looked up, tested part not stated): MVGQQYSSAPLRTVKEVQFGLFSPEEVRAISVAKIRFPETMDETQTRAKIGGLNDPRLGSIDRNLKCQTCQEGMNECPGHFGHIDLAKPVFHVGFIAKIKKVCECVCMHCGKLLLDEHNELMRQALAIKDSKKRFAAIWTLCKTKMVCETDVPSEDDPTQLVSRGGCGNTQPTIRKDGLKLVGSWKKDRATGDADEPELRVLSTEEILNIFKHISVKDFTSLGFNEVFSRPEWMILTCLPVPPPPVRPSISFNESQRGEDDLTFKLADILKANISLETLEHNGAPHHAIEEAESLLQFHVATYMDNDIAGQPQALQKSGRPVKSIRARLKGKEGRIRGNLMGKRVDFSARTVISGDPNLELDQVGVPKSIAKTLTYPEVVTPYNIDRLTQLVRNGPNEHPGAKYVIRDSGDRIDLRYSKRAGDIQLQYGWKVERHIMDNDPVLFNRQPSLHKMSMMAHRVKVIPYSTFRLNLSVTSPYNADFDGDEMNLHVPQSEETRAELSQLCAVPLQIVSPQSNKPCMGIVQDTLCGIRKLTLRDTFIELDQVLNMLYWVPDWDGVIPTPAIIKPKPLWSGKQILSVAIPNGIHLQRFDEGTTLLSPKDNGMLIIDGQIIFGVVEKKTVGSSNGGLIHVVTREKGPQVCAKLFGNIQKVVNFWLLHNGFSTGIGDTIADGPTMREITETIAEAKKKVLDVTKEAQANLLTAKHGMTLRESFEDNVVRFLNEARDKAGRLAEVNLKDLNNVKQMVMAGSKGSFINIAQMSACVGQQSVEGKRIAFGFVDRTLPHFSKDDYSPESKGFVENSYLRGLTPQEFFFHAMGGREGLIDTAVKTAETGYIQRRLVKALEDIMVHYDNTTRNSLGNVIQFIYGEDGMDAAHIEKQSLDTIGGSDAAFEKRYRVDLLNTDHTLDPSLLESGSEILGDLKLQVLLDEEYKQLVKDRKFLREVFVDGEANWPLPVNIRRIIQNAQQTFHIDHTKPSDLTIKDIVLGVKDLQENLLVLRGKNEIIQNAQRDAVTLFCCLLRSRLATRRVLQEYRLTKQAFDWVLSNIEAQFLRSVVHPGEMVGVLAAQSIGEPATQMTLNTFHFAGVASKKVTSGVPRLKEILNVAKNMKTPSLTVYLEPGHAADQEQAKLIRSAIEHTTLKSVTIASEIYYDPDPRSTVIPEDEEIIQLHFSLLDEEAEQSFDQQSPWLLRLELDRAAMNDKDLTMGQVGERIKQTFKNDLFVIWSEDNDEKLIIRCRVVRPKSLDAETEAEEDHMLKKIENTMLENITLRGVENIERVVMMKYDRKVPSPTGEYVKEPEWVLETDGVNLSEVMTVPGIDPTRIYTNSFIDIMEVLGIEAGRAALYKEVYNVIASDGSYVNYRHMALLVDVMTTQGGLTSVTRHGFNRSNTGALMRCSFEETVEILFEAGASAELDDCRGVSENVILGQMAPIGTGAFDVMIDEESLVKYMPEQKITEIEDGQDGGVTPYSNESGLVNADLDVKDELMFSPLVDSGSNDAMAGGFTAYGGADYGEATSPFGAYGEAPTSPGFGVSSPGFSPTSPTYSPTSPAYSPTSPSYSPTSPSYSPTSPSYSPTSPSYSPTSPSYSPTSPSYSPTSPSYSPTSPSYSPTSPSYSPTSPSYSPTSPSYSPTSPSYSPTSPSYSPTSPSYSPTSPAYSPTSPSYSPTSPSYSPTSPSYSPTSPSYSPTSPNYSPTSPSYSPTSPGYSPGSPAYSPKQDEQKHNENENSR
# [4] = residue-specific, 1 to 1 binding fit of NMR titration
# Sequence of Ess1 (from UniProt P22696) (P22696 whole entry): as the sequence (P22696 whole entry R8S) above, with S8R counted along it
compound,measurement,setting,value
CC(=O)N[C@@H](C)C(=O)N[C@@H](CO)C(=O)N[C@@H](Cc1ccc(O)cc1)C(=O)N[C@@H](CO)C(=O)N1CCC[C@H]1C(=O)N[C@H](C(=O)N[C@@H](COP(=O)(O)O)C(=O)N1CCC[C@H]1C(=O)N[C@@H](CO)C(=O)N[C@@H](Cc1ccc(O)cc1)C(=O)N[C@@H](CO)C(N)=O)[C@@H](C)O [1R] (Ac-ASYSPT[pS]PSYS-NH2),IC50,Ess1 [1],259 ± 33 µM
same,Normalized Anisotropy,Ess1 [1]; [1R CTD] 21 μM,0.9587
same,Normalized Anisotropy,Ess1 [1]; [1R CTD] 42 μM,0.9533
same,Normalized Anisotropy,Ess1 [1]; [1R CTD] 84 μM,0.9581
same,Normalized Anisotropy,Ess1 [1]; [1R CTD] 280 μM,0.8033
same,Normalized Anisotropy,Ess1 [1]; [1R CTD] 336 μM,0.7637
same,Normalized Anisotropy,Ess1 [1]; [1R CTD] 560 μM,0.6982
same,Kd,Ess1 [2],155 µM
same,"Kd, Ess1 residue 16",Ess1 [2]; [4],119.2 µM
same,"Kd, Ess1 residue 17",Ess1 [2]; [4],111.1 µM
same,"Kd, Ess1 residue 18",Ess1 [2]; [4],151.9 µM
same,"Kd, Ess1 residue 19",Ess1 [2]; [4],153.7 µM
same,"Kd, Ess1 residue 23",Ess1 [2]; [4],148.5 µM
same,"Kd, Ess1 residue 25",Ess1 [2]; [4],124.8 µM
same,"Kd, Ess1 residue 26",Ess1 [2]; [4],196.0 µM
same,"Kd, Ess1 residue 27",Ess1 [2]; [4],128.9 µM
same,"Kd, Ess1 residue 28",Ess1 [2]; [4],161.3 µM
same,"Kd, Ess1 residue 29",Ess1 [2]; [4],141.4 µM
same,"Kd, Ess1 residue 30",Ess1 [2]; [4],103.1 µM
same,"Kd, Ess1 residue 34",Ess1 [2]; [4],233.3 µM
same,"Kd, Ess1 residue 35",Ess1 [2]; [4],274.5 µM
same,"Kd, Ess1 residue 37",Ess1 [2]; [4],153.0 µM
same,"Kd, Ess1 residue 38",Ess1 [2]; [4],102.8 µM
same,"Kd, Ess1 residue 39",Ess1 [2]; [4],153.9 µM
same,"Kd, Ess1 residue 40",Ess1 [2]; [4],157.5 µM
same,"Kd, Ess1 residue 48",Ess1 [2]; [4],156.8 µM
same,"Kd, Ess1 residue 49",Ess1 [2]; [4],216.2 µM
same,"Kd, Ess1 residue 52",Ess1 [2]; [4],132.6 µM
same,"Kd, Ess1 residue 58",Ess1 [2]; [4],96.2 µM
same,"Kd, Ess1 residue 59",Ess1 [2]; [4],156.4 µM
same,"Kd, Ess1 residue 64",Ess1 [2]; [4],134.1 µM
same,"Kd, Ess1 residue 70",Ess1 [2]; [4],111.0 µM
same,"Kd, Ess1 residue 73",Ess1 [2]; [4],89.4 µM
same,"Kd, Ess1 residue 84",Ess1 [2]; [4],119.4 µM
same,"Kd, Ess1 residue 87",Ess1 [2]; [4],180.8 µM
same,"Kd, Ess1 residue 123",Ess1 [2]; [4],227.8 µM
same,"Kd, Ess1 residue 130",Ess1 [2]; [4],175.2 µM
same,"Kd, Ess1 residue 131",Ess1 [2]; [4],207.7 µM
same,"Kd, Ess1 residue 133",Ess1 [2]; [4],166.8 µM
same,"Kd, Ess1 residue 137",Ess1 [2]; [4],128.3 µM
same,"Kd, Ess1 residue 145",Ess1 [2]; [4],205.8 µM
same,"Kd, Ess1 residue 146",Ess1 [2]; [4],235.1 µM
same,"Kd, Ess1 residue 149",Ess1 [2]; [4],100.8 µM
same,"Kd, Ess1 residue 150",Ess1 [2]; [4],113.4 µM
same,"Kd, Ess1 residue 157",Ess1 [2]; [4],151.8 µM
same,"Kd, Ess1 residue 158",Ess1 [2]; [4],122.1 µM
same,"Kd, Ess1 residue 159",Ess1 [2]; [4],176.3 µM
same,"Kd, Ess1 residue 162",Ess1 [2]; [4],71.8 µM
same,"Kd, Ess1 residue 164",Ess1 [2]; [4],188.7 µM
CC(=O)N[C@@H](Cc1ccc(O)cc1)C(=O)N[C@@H](CO)C(=O)N1CCC[C@H]1C(=O)N[C@H](C(=O)N[C@@H](COP(=O)(O)O)C(=O)N1CCC[C@H]1C(=O)N[C@@H](CO)C(=O)N[C@@H](Cc1ccc(O)cc1)C(=O)N[C@@H](CO)C(=O)N1CCC[C@H]1C(=O)N[C@H](C(=O)N[C@@H](COP(=O)(O)O)C(=O)N1CCC[C@H]1C(=O)N[C@@H](CO)C(N)=O)[C@@H](C)O)[C@@H](C)O [2R],IC50,Ess1 [1],59 µM
same,Normalized Anisotropy,Ess1 [1]; [2R CTD] 29.25 μM,0.8399
same,Normalized Anisotropy,Ess1 [1]; [2R CTD] 58.5 μM,0.6905
same,Normalized Anisotropy,Ess1 [1]; [2R CTD] 234 μM,0.4873
Ess1 (from UniProt P22696),Kd,[3],60 µM
